Patent US7943584B2, “Medicinal composition containing diabetes remedy” (Sankyo Company, Limited, priority 2004, dated 2011)
pIC50: −log10 of the molar value.

Target: T1, human pancreatic α-amylase (HPA) (Homo sapiens, UniProt P04746)
T1 construct: purchased International Reagents Co., Ltd. Calibzyme AMY
T1 sequence (P04746 16-511): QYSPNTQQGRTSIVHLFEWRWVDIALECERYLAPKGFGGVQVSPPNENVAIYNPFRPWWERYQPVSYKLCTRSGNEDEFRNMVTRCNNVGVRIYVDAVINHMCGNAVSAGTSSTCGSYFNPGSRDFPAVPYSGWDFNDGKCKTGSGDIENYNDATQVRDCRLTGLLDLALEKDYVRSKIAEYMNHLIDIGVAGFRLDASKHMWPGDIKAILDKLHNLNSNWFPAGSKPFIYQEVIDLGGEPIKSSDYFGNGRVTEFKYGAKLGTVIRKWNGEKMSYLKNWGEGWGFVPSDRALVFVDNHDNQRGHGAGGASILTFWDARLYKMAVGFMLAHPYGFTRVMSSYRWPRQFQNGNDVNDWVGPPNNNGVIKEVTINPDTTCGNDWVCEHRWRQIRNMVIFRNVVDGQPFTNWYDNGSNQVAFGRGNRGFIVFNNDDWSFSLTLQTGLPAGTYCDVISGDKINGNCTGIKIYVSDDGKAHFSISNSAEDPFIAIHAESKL
Test: α-Amylase inhibitory action (Blue Starch, Neo Amylase Test)
Assay type: biochemical
Conditions: final concentration required for 50% inhibition of HPA solution, 37° C.

pIC50: 6.07
Compound: COC[C@H]1O[C@@H](O[C@H]2[C@H](O)[C@@H](O)C(O[C@H]3[C@H](O)CN[C@@H]3CO)O[C@@H]2CO)[C@H](O)[C@@H](O)[C@@H]1O (stereo partly drawn) [Reference Example 8, (2R,3R,4R)-4-Hydroxy-2-hydroxymethylpyrrolidin-3-yl 4-O-(6-methoxy-6-deoxy-β-D-glucopyranosyl)-D-glucopyranoside]
